Source: US5424196A, “Enzymatic process for preparing 7-aminocephalosporanic acid and derivatives” (Antibioticos S.p.A., priority 1990, dated 1995)

Tests used:
[1] = biological target: T1, D-amino acid oxidase (DAO; EC-1.4.3.3) from Rhodotorula gracilis ATCC 26217 (Rhodotorula toruloides, UniProt P80324); assay: Substrate specificity (Km) of D-amino acid oxidase; format: biochemical; conditions: compared with D-alanine, the specific substrate for this enzyme
T1 construct: production of Rhodotorula gracilis cells of high DAO enzyme content; made in house; host or cells: Rhodotorula gracilis ATCC 26217 (natural producer, aerobic fermentation)
T1 sequence (P80324 25-368): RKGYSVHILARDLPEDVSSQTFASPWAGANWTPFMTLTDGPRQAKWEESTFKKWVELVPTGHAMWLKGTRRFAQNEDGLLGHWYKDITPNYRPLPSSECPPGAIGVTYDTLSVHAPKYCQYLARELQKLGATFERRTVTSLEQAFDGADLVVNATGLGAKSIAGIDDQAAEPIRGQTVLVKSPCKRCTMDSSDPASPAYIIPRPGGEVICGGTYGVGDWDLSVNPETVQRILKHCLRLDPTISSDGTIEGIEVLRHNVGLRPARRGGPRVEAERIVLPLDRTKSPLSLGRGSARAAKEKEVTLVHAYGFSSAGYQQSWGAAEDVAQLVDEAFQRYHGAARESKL
Protocol: The activity of the D-amino acid oxidase enzyme is evaluated by measuring the H2 O2 quantity evolved on reacting the enzyme on a substrate of D-alanine in 100 mM phosphate buffer at pH 7.5 saturated with oxygen at 37° C.
The H2 O2 is determined kinetically using a peroxidase-based reactant, 4-aminophenazone and 2,4-dichlorophenolsulphonate by the modified Trinder reaction (J. Clin. Path. 22, 246, 1969). The red colour which forms (quinonimine) is proportional to the hydrogen peroxide evolved in the test and is measured spectrophotometrically at 510 nm.
One unit of D-amino acid oxidase is that quantity of enzyme (free or immobilized) which under the conditions used in the method produces one μmole of H2 O2 per minute.

[2] = biological target: T1, D-amino acid oxidase (DAO; EC-1.4.3.3) from Rhodotorula gracilis ATCC 26217; assay: Dissociation constant of the FAD cofactor from D-amino acid oxidase; format: binding; conditions: read-out: dissociation constant (bond with the FAD)

Structure (SMILES)	Km [1]	Kd [2]
CC(=O)OCC1=C(C(=O)O)N2C(=O)[C@@H](NC(=O)CCC[C@@H](N)C(=O)O)[C@H]2SC1 [Cephalosporin C]	very similar to those encountered for D-alanine	–
Cc1cc2nc3c(=O)[nH]c(=O)nc-3n(C[C@H](O)[C@H](O)[C@H](O)COP(=O)(O)OP(=O)(O)OC[C@H]3O[C@@H](n4cnc5c(N)ncnc54)[C@H](O)[C@@H]3O)c2cc1C [FAD]	–	22 nM
